{"source": "paper PMC10539439", "about": "(Pharmacological Reports, 2023)", "biological_target": "T1, TAAR1 (Homo sapiens, UniProt Q96RJ0)", "T1 sequence (Q96RJ0 1-339)": "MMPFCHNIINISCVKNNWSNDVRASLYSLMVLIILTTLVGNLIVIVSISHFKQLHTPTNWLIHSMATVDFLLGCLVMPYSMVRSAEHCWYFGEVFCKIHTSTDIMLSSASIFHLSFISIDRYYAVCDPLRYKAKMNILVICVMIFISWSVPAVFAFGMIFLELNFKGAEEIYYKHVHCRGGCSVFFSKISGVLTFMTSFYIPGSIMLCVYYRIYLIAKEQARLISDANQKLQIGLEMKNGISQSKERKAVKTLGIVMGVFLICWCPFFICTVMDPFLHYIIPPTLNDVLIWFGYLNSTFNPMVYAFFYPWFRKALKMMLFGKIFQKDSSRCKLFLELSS", "experiment": "Intrinsic activity, Hit Hunter cAMP assay", "type": "cell-based", "procedure": "The intrinsic activity study at cells with overexpression of TAAR1 (Eurofins, cat. No. 95-0173C2) was carried out at Eurofins Discoveries (Fremont, USA) using the Hit Hunter cAMP method. This assay monitors the activation of a GPCR via Gi and Gs secondary messenger signaling in a homogenous, non-imaging assay format using a technology developed by DiscoverX called Enzyme Fragment Complementation (EFC) with β-galactosidase (β-Gal) as the functional reporter. The enzyme is split into two complementary portions: EA for Enzyme Acceptor and ED for Enzyme Donor. ED is fused to cAMP and in the assay competes with cAMP generated by cells for binding to a cAMP-specific antibody. Active β-Gal is formed by complementation of exogenous EA to any unbound EDcAMP.\ncAMP Hunter cell lines were expanded from freezer stocks according to standard procedures. Cells were seeded in a total volume of 20 µL into white-walled, 384-well microplates and incubated at 37 ℃ for the appropriate time prior to testing. For agonist determination, cells were incubated with a sample to induce a response. Media was aspirated from cells and replaced with 15 µL 2:1 HBSS/10 mM Hepes:cAMP XS + Ab reagent. Intermediate dilution of sample stocks was performed to generate 4X samples in assay buffer. 5 µL of 4 × sample was added to cells and incubated at 37 ℃ or room temperature for 30 or 60 min. Vehicle concentration was 1%. […] Microplates were read following signal generation with a PerkinElmer Envision instrument for chemiluminescent signal detection.", "note": "“And” between values parts separate entries of the source, which are not always exact repeats. Identical values can stand only once."}
{"smiles": "Cl.N=C(N)NN=Cc1c(Cl)cc(O)cc1Cl", "note": "[4-OH-Guanabenz, 2-[(2,6-Dichloro-4-hydroxyphenyl)methylene]hydrazinecarboximidamide Hydrochloride]", "values": [{"measurement": "Intrinsic activity at TAAR1 (in words)", "result": "weak agonistic activity"}, {"measurement": "EC50", "setting": "agonist, tested up to 10^–4 M, response at 10^–2 and 10^–1 M assumed 90–100% of tyramine, read-out: EC50 calculated after computer simulation", "result": 331, "unit": "µM"}, {"measurement": "Average Value (raw signal)", "setting": "cAMP, Agonist, Conc(M) 1e-6", "result": 980.00}, {"measurement": "Value 1 / Value 2 (raw signal)", "setting": "cAMP, Agonist, Conc(M) 1e-6", "result": "960 and 1000"}, {"measurement": "Average Value (raw signal)", "setting": "cAMP, Agonist, Conc(M) 1e-5", "result": 1140.00}, {"measurement": "Value 1 / Value 2 (raw signal)", "setting": "cAMP, Agonist, Conc(M) 1e-5", "result": "1080 and 1200"}, {"measurement": "Average Value (raw signal)", "setting": "cAMP, Agonist, Conc(M) 0.0001", "result": 2200.00}, {"measurement": "Value 1 / Value 2 (raw signal)", "setting": "cAMP, Agonist, Conc(M) 0.0001", "result": 2200}, {"measurement": "% Efficacy (of the full agonist tyramine)", "setting": "cAMP, Agonist, Conc(M) 0.0001 (10^–4 M)", "result": 23.1, "unit": "%"}, {"measurement": "Emax at 100 µM", "setting": "cAMP, Agonist, Conc(M) 0.0001 (10^–4 M), read-out: % Efficacy (of the full agonist tyramine)", "result": 23, "unit": "%"}, {"measurement": "Intrinsic activity at TAAR1", "setting": "summary table", "result": "+"}]}
